# Experimental data as given in patent US7927850B2, “Composition containing trehalose synthase and methods of use thereof” (Academia Sinica, priority 2006, dated 2011).
# System: not listed separately
# Experiment: Enzyme assay: amount of trehalose produced from maltose by PTTS
# Format: biochemical, Picrophilus torridus
# Settings: PTTS without His-tag
# Protocol: (§1) The activity of PTTS was assayed by measuring the amount of trehalose produced from maltose. The standard reaction was performed by adding 1.5 μL purified enzyme into 50 μL reaction solution containing 50 mM sodium phosphate (pH 6.0) and 150 mM maltose and incubating in a 45° C. water bath for 25 min. The assay time was under the linear range of enzyme reaction. The reaction was terminated by heating the mixture in boiling water for 15 min. One unit of enzyme activity was defined as the amount of enzyme that catalyzes the formation of 1 μmol of trehalose per min. Kinetic analysis was performed under conditions of pH 6.0 and 45° C. for 5 min in 50 mM sodium phosphate buffer containing substrate (maltose, trehalose, or maltose plus a constant 10 mM of glucose) at various concentrations. The resulting data were analyzed offline with Origin 6.0 software (Microcal, Northampton, Mass.). All experiments were carried out in duplicate or triplicate.
# (§2) The amount of trehalose, glucose, and maltose after each enzymatic reaction was measured using a high performance liquid chromatography (HPLC) (SFD 2100) system equipped with an RI detector (Schambeck S F D, RI 2000) at a flow rate of 0.9 mL/min. A carbohydrate analysis column (HYPERSIL-100 Amino, Thermo Hypersil-Keystone) equilibrated with 75% acetonitrile, 24% Milli-Q water, and 1% formic acid was used. The retention times of glucose, maltose, and trehalose were 8.0, 11.2, and 12.5 min, respectively.
row,Molecule,specific activity relative to the recombinant His-tag fusion PTTS
1,"native PTTS: Picrophilus torridus trehalose synthase protein without the linker and hexahistidine tag (SEQ ID NO: 3) (protein, listed as Picrophilus torridus) MLDNNGLWYRDAVFYEVPVKSFYDSNNDGIGDFNGLTMKLDYLKKLGVDALWLLPFYKSPLKDDGYDISDYYSILPEYGTIDDFKNFIDTAHSMNIRVIADLVLNHVSDQHPWFIESRSSIDNPKRDWFIWSDTPEKFKEARIIFIDTEKSNWTYDPETKQYYFHRFYSSQPDLNYDNPDVRNEVKKVIRYWLDLGLDGFRADAVPYLFKRENTNCENLPETHNFFKEIRKMMDEDYPGTILLAEANQWPTETKAYFGNGDEFHMAFNFPLMPRIFIALARSDYYPIMDIIKQTLPIPDNCDWCIFLRNHDELTLEMVTDSERDIMYREYAKIPKMRLNLGIRRRLAPLADNDINTIELLNALIFSLPGTPIIYYGDEIGMGDNIYLGDRNGVRTPMQWSYDRNAGFSMADSEQLYSPVITNPNYHYESVNVEAELRLSSSLLNWMIKIIHVRKDYKELLGRGSIKFIEQGNKRVLSYIREYENQRMLCLFNLSRNPTYVELNLSDYIGLKPIEAITKAAFPRIKDDRYFITMTPRSFFWFNLIVPERDDSYDLIGED",about 1.3 fold

# System: recombinant PTTS
# Experiment: Substrate specificity of recombinant PTTS
# Format: biochemical, Picrophilus torridus
# Settings: standard assay conditions
# Protocol: as §1, §2
# Substrate Specificity of Recombinant PTTS. […] It also acted on sucrose and catalyzed the formation of glucose, fructose, and trehalulose [α-D-glucopyranosyl-(1,1)-D-fructofuranose], however, the activity is quite low. In addition, it converted the α,β-1,1-trehalose to maltose, though only about 7% just as with the α,α-1,1-trehalose.
Molecule,activity of recombinant PTTS with the substance as substrate,"conversion to maltose relative to α,α-1,1-trehalose"
O=C(CO)[C@@H](O)[C@H](O)[C@H](O)CO [fructose],No detectable activities,
O=C[C@H](O)[C@@H](O)[C@@H](O)[C@H](O)CO [galactose],No detectable activities,
OC[C@H]1O[C@H](OC[C@H]2OC(O)(CO)[C@@H](O)[C@@H]2O)[C@H](O)[C@@H](O)[C@@H]1O (stereo partly shown) [isomaltulose],No detectable activities,
OC[C@H]1O[C@@H](O[C@H]2[C@H](O)[C@@H](O)C(O)O[C@@H]2CO)[C@H](O)[C@@H](O)[C@H]1O (stereo partly shown) [lactose],No detectable activities,
OC[C@H]1O[C@H](O[C@H]2[C@H](O)[C@@H](O)[C@@H](O[C@H]3[C@H](O)[C@@H](O)[C@@H](O[C@H]4[C@H](O)[C@@H](O)[C@@H](O[C@H]5[C@H](O)[C@@H](O)C(O)O[C@@H]5CO)O[C@@H]4CO)O[C@@H]3CO)O[C@@H]2CO)[C@H](O)[C@@H](O)[C@@H]1O (stereo partly shown) [maltopentose],No detectable activities,
OC[C@H]1O[C@H](O[C@H]2[C@H](O)[C@@H](O)[C@H](O)O[C@@H]2CO)[C@H](O)[C@@H](O)[C@@H]1O [maltose],converted them to each other,
OC[C@H]1O[C@H](O[C@H]2[C@H](O)[C@@H](O)[C@@H](O[C@H]3[C@H](O)[C@@H](O)[C@@H](O[C@H]4[C@H](O)[C@@H](O)C(O)O[C@@H]4CO)O[C@@H]3CO)O[C@@H]2CO)[C@H](O)[C@@H](O)[C@@H]1O (stereo partly shown) [maltotetraose],No detectable activities,
OC[C@@H](O)[C@@H](O)[C@H](O)[C@@H](O)CO [sorbitol],No detectable activities,
OC[C@H]1O[C@@](CO)(O[C@H]2O[C@H](CO)[C@@H](O)[C@H](O)[C@H]2O)[C@@H](O)[C@@H]1O [sucrose],quite low,
"OC[C@H]1O[C@H](O[C@H]2O[C@H](CO)[C@@H](O)[C@H](O)[C@H]2O)[C@H](O)[C@@H](O)[C@@H]1O [trehalose, α-D-glucopyranosyl α-D-glucopyranoside]",converted them to each other,
"OC[C@H]1O[C@@H](O[C@H]2O[C@H](CO)[C@@H](O)[C@H](O)[C@H]2O)[C@H](O)[C@@H](O)[C@@H]1O [α,β-1,1-trehalose]",,about 7%
"OC[C@H]1O[C@@H](O[C@@H]2O[C@H](CO)[C@@H](O)[C@H](O)[C@H]2O)[C@H](O)[C@@H](O)[C@@H]1O [β,β-1,1-trehalose]",No detectable activities,
maltotriose,No detectable activities,

# System: PTTS
# Experiment: Effects of metal ions and reagents on PTTS activity
# Format: biochemical, Picrophilus torridus
# Settings: 1 mM metal ion or reagent, standard assay conditions
# Protocol: as §1
# Effects of Metal Ions and Reagents on PTTS Activity. The effects of metal ions and reagents were determined by examining enzyme activity in the presence of 1 mM and 10 mM metal ions or reagents under standard assay conditions (FIG. 8).
row,Molecule,inhibition of enzyme activity
1,[Ag+] [Ag^+],inhibited strongly
2,[Al+3] [Al^3+],inhibited strongly
3,[Cd+2] [Cd^2+],moderately
4,[Cu+2] [Cu^2+],moderately
5,[Hg+2] [Hg^2+],inhibited strongly
6,[Pb+2] [Pb^2+],moderately
7,CCCCCCCCCCCCOS(=O)(=O)[O-].[Na+] [SDS],inhibited strongly
8,NC(CO)(CO)CO [Tris],moderately
